Experimental data: patent US11512089B2, “Substituted [1,2,4]triazolo[3,4-a]phthalazines as modulators of GABAA receptor activity” (SHANGHAI SIMR BIOTECHNOLOGY CO., LTD, priority 2018, dated 2022)
≈ marks a conversion by molar mass, not a printed value.

Tests used:
[1] = Kinetic solubility in 50 mM phosphate buffer pH 7.4; type: physicochemical; conditions: aqueous buffer, kinetic from dmso stock, 50 mM phosphate buffer pH 7.4, 2% DMSO, room temperature
Protocol: (§1) 50 mM phosphate buffer pH=7.4: 0.39 g of NaH2PO4.2H2O, and 1.4025 g of Na2HPO4 were weighted and placed in an erlenmeyer flask, 240 mL of water was added. The solid was dissolved and mixed thoroughly, the pH value was adjusted to 7.4 with 10M NaOH solution, and the resulting solution was transferred to a 250 mL volumetric flask, followed by adding water to the mark.
(§2) Waters e2695 HPLC high performance liquid chromatography, Mettler XSE105 analytical balance.
(§3) Firstly, a 10 mM stock solution with DMSO as the solvent was prepared, and was diluted with a diluent (ACN: PB buffer 50:50) into 1 μM-200 μM as standard solution.
Kinetic solubility. 30 μL of the stock solution was placed in a 2 mL centrifuge tube, 1470 μL of 50 mM phosphate buffer (pH 7.4) (containing DMSO at a final concentration of 2%) was added. The mixture was shaken at room temperature (1000 rpm/min) for 24 hours, and then filtered. The filtrate was tested by high performance liquid chromatography (UV).

[2] = Thermodynamic solubility in 50 mM phosphate buffer pH 7.4; type: physicochemical; conditions: aqueous buffer, thermodynamic from solid, 50 mM phosphate buffer pH 7.4, room temperature
Protocol: as §1, §2, §3
Thermodynamic solubility. About 1 mg of the sample was weighted, 1.5 mL of 50 mM phosphate buffer (pH 7.4) was added thereto, and the mixture was shaken at room temperature for 24 hours to ensure that the solution reached a state of saturation. The solution was then filtered, and the filtrate was tested with high-performance liquid chromatography (UV).

α5-GABAA receptor = biological target: T1, α5-GABAA receptor (Homo sapiens, UniProt P18507+P31644); assay: Whole cell patch clamp, inverse agonism efficacy on GABA-induced current in HEK-293 cells expressing α5-GABAA receptor; type: cell-based; conditions: HEK293; compound 100 nM, GABA 0.05 μM; ratio to reference compound Example 7 in CN106854207A in the same batch
T1 construct: expressed in transfected cells; host or cells: HEK-293 (monoclonal, stably transfected)
Protocol: The inventors used electrophysiological methods to determine the inverse agonist efficacy of the substances to be tested. The detailed procedures are as follows:
(1) Different subunits of GABAA receptors were expressed in human embryonic kidney cells 293 (HEK293). The cells were cultured in a culture medium and used as a cell model for screening potential analgesics. The α, β and γ subunits are necessary to form complete functional GABAA receptors. In this example, the inventors have established the following cell model: (a) α5 subunit (protein sequence is GenBank accession number: NM_000810.3), (33 subunit (protein sequence is GenBank accession number: NM_000814.5) and γ2 subunit (protein sequence is GenBank accession number: NM_000816.3) were expressed in HEK-293 cell line at the same time, followed by screening the monoclonal cell line. This cell line contained α5-GABAA receptor and had complete GABAA receptor function.
(2) The monoclonal stably transfected HEK-293 cells expressing α5-GABAA receptor were cultured in 10 cm culture dishes. The cells were passaged after reaching 80-90% confluence. During passaging, the culture medium was removed and discarded, 3 mL of DPBS (phosphate buffered saline, Gibco™) was added to the dishes, the dishes were shaken slightly, and DPBS was removed and discarded. 1 mL of trypsin (TrypLE Express, Gibco™) was added and the cells were digested at 37° C. for 1-2 minutes. Then 3 mL of complete medium (DMEM+10% FBS (Gibco™)) was added and the cells at the bottom of the culture dishes were dispersed. The cell suspension were transferred to a 15 mL centrifugal tube (Corning™) and then centrifuged at 200 g for 3 minutes. The supernatant was discarded, 4 mL of complete medium was added, and the cells were resuspended by gently blowing. The cell suspension was diluted by 1:5 or 1:10 for subculturing. The cell suspension was diluted by 1:12 for electrophysiology experiment, and added to a 24 well plate (Corning™) with a glass slide pre-treated with poly-D-lysine placed thereon; the experiment was initiated after the cells were adhered to the slide. The cells for electrophysiology experiment were maintained in culture for no more than 48 hours before use.
(3) Compound concentration: for screening, all compounds were diluted to a final concentration of 100 nM and the concentration of GABA was 0.05 μM. The compounds were at the concentration of 0.3 nM, 3 nM, 10 nM, 30 nM, 100 nM and 300 nM in dose-inverse agonism efficacy (%) experiment. The whole cell patch clamp technique was used in electrophysiology experiments, which can refer to the literature (I. Lecker, Y. Yin, D. S. Wang and B. A. Orser, (2013) Potentiation of GABAA receptor activity by volatile anaesthetics is reduced by α5-GABAA receptor-preferring inverse agonists, British Journal of Anaesthesia 110 (S1): i73-i81). The extracellular solution (ECS) contained: 150 mM NaCl, 5 mM KCl, 2.5 mM CaCl2, 1 mM MgCl2, 10 mM HEPES and 10 mM glucose (pH 7.4); Patch electrodes were filled with an intracellular solution containing: 140 mM CsCl, 11 mM EGTA, 10 mM HEPES, 2 mM CaCl2, 1 mM MgCl2, 4 mM MgATP, 2 mM TEA (pH 7.3). The currents were recorded by an EPC-10 amplifier and the PatchMaster software (HEKA). Patch electrodes with a resistance of 4-6 MΩ were pulled from borosilicate glass. The ALA-VC3-8PP™ system was used for extracellular administration. Separate cells that grew independently was selected for recording. During recording, the membrane voltage was clamped at −60 mV. During experiment, the cells were firstly perfused with ECS for 20 seconds. When the baseline reached to a stable state, the cells were then perfused with GABA solution. Then the current induced by GABA could be detected. After about 20 to 40 seconds, the current was stable. ECS was switched to compounds solution and the effects of the compounds were detected. At last, the perfusion solution was switched to ECS. […]

α5-GABAA = biological target: T2, α5-GABAA (Homo sapiens, UniProt P31644); conditions: cited from earlier work
T2 sequence (P31644 32-462): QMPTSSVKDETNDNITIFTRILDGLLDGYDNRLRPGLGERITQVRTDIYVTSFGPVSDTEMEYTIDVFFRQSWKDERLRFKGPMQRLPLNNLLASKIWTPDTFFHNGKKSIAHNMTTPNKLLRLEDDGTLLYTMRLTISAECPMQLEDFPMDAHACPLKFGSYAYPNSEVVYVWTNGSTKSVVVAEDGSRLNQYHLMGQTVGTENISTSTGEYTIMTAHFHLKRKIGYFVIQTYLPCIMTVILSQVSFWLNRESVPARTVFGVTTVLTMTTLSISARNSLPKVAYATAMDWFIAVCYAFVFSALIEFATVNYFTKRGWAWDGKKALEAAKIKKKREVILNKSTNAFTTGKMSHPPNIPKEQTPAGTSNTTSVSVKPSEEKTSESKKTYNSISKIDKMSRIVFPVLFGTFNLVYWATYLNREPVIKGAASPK

[3] = Pharmacokinetic experiment on rats, oral; type: in vivo; conditions: rat; male SD rats, po 1 mg/kg, 50% PEG400/50% water, plasma
Protocol: In the pharmacokinetic experiment on rats, the maximum drug concentration (Cmax) in the blood was determined to evaluate the absorption of the compounds in rats. All rats fasted overnight before administration; the test compounds were dissolved and administered orally (po, intragastric administration) to male SD rats, with 3 rats in each group. After administration of the test compounds, blood was collected by jugular vein puncture at […] with 0.25 mL per sample. The plasma drug concentration was determined by LC-MS/MS method, and the pharmacokinetic parameters were calculated by Phoenix WinNonlin7.0. The dose was 1 mg/kg, and the menstruum was 50% PEG400/50% water.

T1 sequence (P28472 26-473 partner, one chain of several): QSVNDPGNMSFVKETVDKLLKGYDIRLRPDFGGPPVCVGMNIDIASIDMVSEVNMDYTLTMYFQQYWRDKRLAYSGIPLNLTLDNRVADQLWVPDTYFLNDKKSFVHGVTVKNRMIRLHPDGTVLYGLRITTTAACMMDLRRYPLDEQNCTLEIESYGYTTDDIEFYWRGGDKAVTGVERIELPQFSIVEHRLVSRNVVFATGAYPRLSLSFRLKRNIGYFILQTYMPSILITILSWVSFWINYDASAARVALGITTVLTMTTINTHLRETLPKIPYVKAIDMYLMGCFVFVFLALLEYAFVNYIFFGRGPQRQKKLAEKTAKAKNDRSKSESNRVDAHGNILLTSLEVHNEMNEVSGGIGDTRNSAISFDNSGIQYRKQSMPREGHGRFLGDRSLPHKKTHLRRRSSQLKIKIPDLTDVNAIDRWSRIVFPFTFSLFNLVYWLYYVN
T1 sequence (P18507 40-467 isoform P18507-1 limits assumed, one chain of several): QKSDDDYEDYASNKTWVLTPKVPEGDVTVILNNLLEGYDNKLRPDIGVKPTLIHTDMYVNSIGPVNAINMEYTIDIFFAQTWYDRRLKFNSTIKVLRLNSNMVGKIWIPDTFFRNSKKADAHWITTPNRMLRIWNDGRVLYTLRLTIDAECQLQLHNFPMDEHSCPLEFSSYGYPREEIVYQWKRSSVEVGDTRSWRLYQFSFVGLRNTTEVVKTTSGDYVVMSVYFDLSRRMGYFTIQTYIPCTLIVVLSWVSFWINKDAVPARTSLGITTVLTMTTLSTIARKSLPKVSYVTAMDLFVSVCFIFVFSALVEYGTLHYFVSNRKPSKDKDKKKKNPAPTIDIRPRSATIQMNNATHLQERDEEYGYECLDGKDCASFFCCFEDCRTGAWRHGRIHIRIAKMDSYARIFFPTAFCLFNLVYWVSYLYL

Structure (SMILES)	solubility kinetic at 24 h [1]	solubility thermodynamic at 24 h [2]	Emax at 0.1 µM (α5-GABAA receptor)	Cmax [3]	inhibition efficacy of the highest dose on the current induced by GABA (α5-GABAA; GABA concentration 1 μM)	inhibition on the current induced by GABA (α5-GABAA; GABA concentration higher than 1 μM)
CCNC(=O)c1ccc(COc2nn3c(-c4cc(COC)on4)nnc3c3ccccc23)nc1 [Compound 02, N-ethyl-6-[3-(5-methoxymethyl-isoxazol-3-yl)-[1,2,4]triazolo[3,4-a]phthalazin-6-yloxymethyl]-nicotinamide]	8.02 µg/mL (≈ 17.5 µM)	3.39 µg/mL (≈ 7.38 µM)	78%			
COCc1cc(-c2nnc3c4ccccc4c(OCc4ccc(C(=O)N5CCC(F)(F)CC5)cn4)nn23)no1 [Compound 34]	4.6 µg/mL (≈ 8.59 µM)	4.4 µg/mL (≈ 8.22 µM)				
CCOC(=O)c1ncn2c1[C@@H]1CCCN1C(=O)c1cc(OC)ccc1-2 [L-655,708]					15%	no inhibition
CCNC(=O)c1ccc(COc2nn3c(-c4cc(C)on4)nnc3c3ccccc23)nc1 [drawing 164, reference compound]	0.62 µg/mL (≈ 1.44 µM)	< 0.5 µg/mL				
Cc1cc(-c2nnc3c4ccccc4c(OCc4ccc(C(=O)N5CCOCC5)cn4)nn23)no1 [drawing 171, reference compound]	1.95 µg/mL (≈ 4.14 µM)	1.7 µg/mL (≈ 3.61 µM)				
CCNC(=O)c1ccc(COc2nn3c(-c4cc(C)on4)nnc3c3ccccc23)nc1 [drawing 173, reference compound]				19 ng/mL		
Cc1cc(-c2nnc3c4ccccc4c(OCc4ccc(C(=O)N5CCOCC5)cn4)nn23)no1 [drawing 175, reference compound]				22.4 ng/mL		
COCCNC(=O)c1ccc(COc2nn3c(-c4cc(C)on4)nnc3c3ccccc23)nc1 [reference compound]	0.92 µg/mL (≈ 2 µM)	1.5 µg/mL (≈ 3.26 µM)				
Cc1cc(-c2nnc3c4ccccc4c(OCc4ccc(C(=O)NC(C)C)cn4)nn23)no1 [reference compound]	2.2 µg/mL (≈ 4.96 µM)	1.8 µg/mL (≈ 4.06 µM)				
Cc1cc(-c2nnc3c4ccccc4c(OCc4ccc(C(=O)NC5CC5)cn4)nn23)no1 [reference compound]	2.16 µg/mL (≈ 4.89 µM)	0.82 µg/mL (≈ 1.86 µM)				
Cc1cc(-c2nnc3c4ccccc4c(OCc4ccc(C(=O)NCC(F)F)cn4)nn23)no1 [reference compound]	< 0.46 µg/mL	< 0.46 µg/mL				
Cc1cc(-c2nnc3c4ccccc4c(OCc4ccc(C(=O)N5CCC(F)(F)CC5)cn4)nn23)no1 [reference compound]	0.97 µg/mL (≈ 1.92 µM)	0.98 µg/mL (≈ 1.94 µM)				

Now from value to molecule, other results behind:

solubility kinetic at 24 h [1]	solubility thermodynamic at 24 h [2]	Emax at 0.1 µM (α5-GABAA receptor)	Cmax [3]	Structure (SMILES)	inhibition efficacy of the highest dose on the current induced by GABA (α5-GABAA; GABA concentration 1 μM)	inhibition on the current induced by GABA (α5-GABAA; GABA concentration higher than 1 μM)
9.23 µg/mL (≈ 19.5 µM)	4.4 µg/mL (≈ 9.29 µM)	106%		COCc1cc(-c2nnc3c4ccccc4c(OCc4ccc(C(=O)NC(C)C)cn4)nn23)no1 [Compound 11, N-isopropyl-6-[3-(5-methoxymethyl-isoxazol-3-yl)-[1,2,4]triazolo[3,4-a]phthalazin-6-yloxymethyl]-nicotinamide]		
10.9 µg/mL (≈ 23.1 µM)	9.05 µg/mL (≈ 19.2 µM)	94%		COCc1cc(-c2nnc3c4ccccc4c(OCc4ccc(C(=O)NC5CC5)cn4)nn23)no1 [Compound 12, N-cyclopropyl-6-[3-(5-methoxymethyl-isoxazol-3-yl)-[1,2,4]triazolo[3,4-a]phthalazin-6-yloxymethyl]-nicotinamide]		
91.9 µg/mL (≈ 200 µM)	84.7 µg/mL (≈ 184 µM)	72.1%		COCc1cc(-c2nnc3c4ccccc4c(OCc4ccc(C(=O)N(C)C)cn4)nn23)no1 [Compound 37]		
17.8 µg/mL (≈ 35.4 µM)	8.7 µg/mL (≈ 17.3 µM)	93.4%		COCc1cc(-c2nnc3c4ccccc4c(OCc4ccc(C(=O)N5CCOCC5)cn4)nn23)no1 [Compound 38, {6-[3-(5-methoxymethyl-isoxazol-3-yl)-[1,2,4]triazolo[3,4-a]phthalazin-6-yloxymethyl]-pyridin-3-yl}-morpholin-4-methanone]		
5.89 µg/mL (≈ 11.7 µM)	6.02 µg/mL (≈ 12 µM)	73.3%		COCc1cc(-c2nnc3c4ccccc4c(OCc4ccc(C(=O)N5CC(OC)C5)cn4)nn23)no1 [Compound 42]		
			24.7 ng/mL	CCNC(=O)c1ccc(COc2nn3c(-c4cc(COC)on4)nnc3c3ccccc23)nc1 [drawing 172]		
			48 ng/mL	COCc1cc(-c2nnc3c4ccccc4c(OCc4ccc(C(=O)N5CCOCC5)cn4)nn23)no1 [drawing 174]		
